Experimental data reported in patent US20250221987A1, “PIPERAZINO RING-CONTAINING DERIVATIVE, PHARMACEUTICALLY ACCEPTABLE SALT THEREOF, PREPARATION METHOD THEREFOR, AND APPLICATION THEREOF” (ACERAND THERAPEUTICS (HONG KONG) LIMITED, priority 2022, published 2025).
Like-named read-outs stand apart in the source and are kept apart here.

How the values were obtained:
MDA-MB-436 cells = assay: Proliferation activity assay of MDA-MB-436 cells (CellTiter-Glo); assay type: cell-based; details: 4000 cells seeded, 6 days incubation, read-out: MDA-MB-436 proliferation inhibition IC50
Method: Complete culture medium was prepared and mixed thoroughly. The cells were resuscitated and cultured for about two passages to select a cell line in good growth condition. The cell culture flask was removed from the incubator. Cell adherence: the culture medium was aspirated, then the cells were washed once with trypsin to discard the waste liquid, and 3 mL of fresh trypsin was added to the culture flask for digestion. When the cells were loose to be detached from the wall of the flask, 8 mL of complete culture medium was added thereto to stop trypsin digestion and mixed gently. The cell suspension was transferred to a centrifuge tube with a pipette and centrifuged at 1000 rpm for 5 minutes. The supernatant was discarded. An appropriate volume of culture medium was added to the centrifuge tube and pipetted gently to resuspend the cells evenly. The cells were counted using a Vi-Cell XR cell counter. The cell suspension was adjusted to an appropriate concentration. The cell suspension was added to a 96-well plate at 100 µL/well. The details such as cell name, seeding density, and date were labelled, and the culture plate was placed in a CO2 incubator overnight.
The compound to be tested was prepared into a 10 mM stock solution, which was aliquoted and stored in a −20° C. freezer. The compound solution was added to a 96-well plate using HPD300. The plate was incubated in a CO2 incubator for a total of 6 days.
CellTiter-Glo buffer was melted at room temperature. The lyophilized CellTiter-Glo substrate was equilibrated to room temperature. CellTiter-Glo buffer was added to the CellTiter Glo substrate and mixed thoroughly. A cell plate was taken out and equilibrated to room temperature. 100 μL of mixed CellTiter Glo reagent was added to each well, and the mixture was shaken in the dark for 10 minutes, followed by incubation for 20 minutes. The culture plate was placed into an Enspire reading plate, and the luminescence reading results were recorded. […] A pharmacodynamic inhibition rate curve was plotted by using XLFit, and the IC50 value was calculated. The 4-parameter model [fit=(A+((B−A)/(1+((C/x)^D)))] was used.

PARP1 = PARP1 (Homo sapiens (Human), UniProt P09874); assay: PARP1 enzymatic activity assay; assay type: biochemical; details: for PARP1/PARP2 inhibition Selectivity multiple N (N = IC50 (PARP2)/IC50 (PARP1)): ratio IC50 (PARP2)/IC50 (PARP1); for IC50: final PARP1 0.02 nM, DNA 0.8 nM, NAD+ 3.5 μM, 60 minutes
Method: 2) After the coating was completed, the coating buffer was discarded.
After washing, the blocking buffer was discarded.
4) 1000× compound was prepared. 1 μL of compound was transferred to a 96-well plate containing 199 μL of reaction buffer (50 mM Tris-HCl (pH 7.5), 0.005% Tween-20, 0.01% BSA) and mixed well.
5) 25/10×PARP1-DNA solution was prepared with reaction buffer.
6) 25/10×NAD+ solution was prepared with reaction buffer.
8) Primary antibody was 2000-fold diluted with the blocking buffer. 20 μL of primary antibody was added to the reaction plate, which was incubated at room temperature for 1.5 hours.
9) The primary antibody was discarded.
10) Secondary antibody was 2000-fold diluted with the blocking buffer.
11) The secondary antibody was discarded.
The chemiluminescence value RLU was read with Envision.

PARP2 = PARP2 (Homo sapiens (Human), UniProt Q9UGN5); assay: PARP2 enzymatic activity assay; assay type: biochemical; details: Biotin-NAD+ 2 μM, 60 minutes
[1] = Homo sapiens, MDA-MB-436, 144 h

Sequence of PARP2 (Q9UGN5 whole entry): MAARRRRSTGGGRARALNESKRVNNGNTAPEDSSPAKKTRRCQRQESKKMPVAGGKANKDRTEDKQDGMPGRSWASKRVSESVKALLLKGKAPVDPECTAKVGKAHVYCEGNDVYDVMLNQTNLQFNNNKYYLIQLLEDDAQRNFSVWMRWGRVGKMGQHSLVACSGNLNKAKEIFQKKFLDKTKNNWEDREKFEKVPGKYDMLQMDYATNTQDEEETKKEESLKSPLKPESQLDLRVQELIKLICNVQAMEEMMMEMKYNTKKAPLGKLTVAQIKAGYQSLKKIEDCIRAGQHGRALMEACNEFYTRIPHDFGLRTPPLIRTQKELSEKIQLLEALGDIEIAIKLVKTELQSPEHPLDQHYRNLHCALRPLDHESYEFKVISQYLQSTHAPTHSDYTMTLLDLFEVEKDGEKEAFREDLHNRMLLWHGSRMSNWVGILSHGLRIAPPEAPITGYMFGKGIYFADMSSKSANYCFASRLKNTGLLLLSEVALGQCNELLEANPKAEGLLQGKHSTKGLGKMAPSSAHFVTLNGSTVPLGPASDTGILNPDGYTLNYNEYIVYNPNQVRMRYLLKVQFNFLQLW
Sequence of PARP1 (P09874 whole entry): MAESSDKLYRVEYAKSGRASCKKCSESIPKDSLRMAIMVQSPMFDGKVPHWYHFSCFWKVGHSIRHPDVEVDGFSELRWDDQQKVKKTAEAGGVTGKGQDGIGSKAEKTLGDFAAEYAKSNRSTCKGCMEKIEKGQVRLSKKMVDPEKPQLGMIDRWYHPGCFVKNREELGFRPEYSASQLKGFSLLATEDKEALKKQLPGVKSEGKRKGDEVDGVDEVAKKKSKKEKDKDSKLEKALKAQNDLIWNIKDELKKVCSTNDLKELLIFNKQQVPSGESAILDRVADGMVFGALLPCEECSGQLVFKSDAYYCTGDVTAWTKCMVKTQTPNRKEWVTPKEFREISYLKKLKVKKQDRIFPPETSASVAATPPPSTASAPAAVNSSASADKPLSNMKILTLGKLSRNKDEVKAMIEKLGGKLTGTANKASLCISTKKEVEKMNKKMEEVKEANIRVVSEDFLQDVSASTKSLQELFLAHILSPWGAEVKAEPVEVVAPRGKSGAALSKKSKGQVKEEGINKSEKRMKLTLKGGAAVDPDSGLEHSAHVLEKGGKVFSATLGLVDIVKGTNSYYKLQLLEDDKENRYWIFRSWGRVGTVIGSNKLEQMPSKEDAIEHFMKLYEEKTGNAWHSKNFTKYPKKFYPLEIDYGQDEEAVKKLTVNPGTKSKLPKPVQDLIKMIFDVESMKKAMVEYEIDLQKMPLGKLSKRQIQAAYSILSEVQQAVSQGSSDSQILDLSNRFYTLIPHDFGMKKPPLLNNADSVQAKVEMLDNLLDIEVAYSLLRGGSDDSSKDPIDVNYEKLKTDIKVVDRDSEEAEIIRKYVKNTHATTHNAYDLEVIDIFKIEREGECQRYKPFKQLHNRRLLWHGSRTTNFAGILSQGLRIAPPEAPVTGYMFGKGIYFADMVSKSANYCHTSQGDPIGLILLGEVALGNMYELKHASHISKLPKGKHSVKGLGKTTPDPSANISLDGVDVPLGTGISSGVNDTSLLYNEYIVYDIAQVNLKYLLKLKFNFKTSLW

Row | PARP1/PARP2 inhibition Selectivity multiple N (N = IC50 (PARP2)/IC50 (PARP1)) (PARP1) | IC50 (PARP2; final PARP2 […]) [nM] | IC50 (PARP1) [nM] | IC50 (PARP2; final PARP2 1.5 nM) [nM] | Compound | IC50 (MDA-MB-436 cells; [1]) [nM] | IC50 (MDA-MB-436 cells) [nM]
1 |  |  |  |  | CNC(=O)c1ccc(N2CCN(Cc3cnc4c5c(c(=O)[nH]c4c3)CCC5)[C@@H]3C[C@@H]32)cn1 (relative stereo) [Example 7, cis-N-methyl-5-(5-((6-oxo-6,7,8,9-tetrahydro-5H-cyclopenta[c][1,5]naphthyridin-3-yl)methyl)-2,5-diazabicyclo[4.1.0]heptan-2-yl)picolinamide] | 13 | 
2 |  |  |  |  | CCc1cc2ncc(CN3CCN(c4ccc(C(=O)NC5CC5)nc4)[C@H]4CC[C@H]43)cc2[nH]c1=O (relative stereo) [Example 46, cis-N-cyclopropyl-5-(5-((7-ethyl-6-oxo-5,6-dihydro-1,5-naphthyridin-3-yl)methyl)-2,5-diazabicyclo[4.2.0]octan-2-yl)pyridine-2-carboxamide] | 5 | 
3 | 16 |  |  |  | CCc1cc2ncc(CN3CCN(c4ccc(C(=O)NC)nc4)C4CCC43)cc2[nH]c1=O (centres unmarked) [Example 2, 5-(5-((7-ethyl-6-carbonyl-5,6-dihydro-1,5-naphthyridin-3-yl)methyl)-2,5-diazabicyclo[4.2.0]octan-2-yl)-N-methylpyridine-2-carboxamide] | 5 | 
4 | 48 |  |  |  | CCc1cc2ncc(CN3CCN(c4ccc(C(=O)NC)nc4)[C@@H]4CC[C@H]43)cc2[nH]c1=O [Example 2-3, 5-((1R,6R)-5-((7-ethyl-6-carbonyl-5,6-dihydro-1,5-naphthyridin-3-yl)methyl)-2,5-diazabicyclo[4.2.0]octan-2-yl)-N-methylpyridine-2-carboxamide] |  | 
5 | 40 |  |  |  | CCc1cc2ncc(CN3CCN(c4ccc(C(=O)NC)nc4)[C@H]4CC[C@@H]43)cc2[nH]c1=O [Example 2-4, 5-((1S,6S)-5-((7-ethyl-6-carbonyl-5,6-dihydro-1,5-naphthyridin-3-yl)methyl)-2,5-diazabicyclo[4.2.0]octan-2-yl)-N-methylpyridine-2-carboxamide] | 2 | 
6 | 83 | 75 | 0.9 |  | CCc1cc2nnc(CN3CCN(c4ccc(C(=O)NC)nc4)[C@@H]4C[C@@H]43)cc2[nH]c1=O [Example 5-1] |  | 
7 | 64 | 32 | 0.5 |  | CCc1cc2nnc(CN3CCN(c4ccc(C(=O)NC)nc4)C4C[C@H]43)cc2[nH]c1=O (some centres unmarked) [Example 5-2] |  | 
8 | 62 | 31 | 0.5 |  | CCc1cc2nnc(CN3CCN(c4ccc(C(=O)NC)nc4)C4C[C@H]43)cc2[nH]c1=O (some centres unmarked) [Example 5] |  | 
9 | 45 | 36 | 0.8 |  | CCc1cc2nnc(CN3CCN(c4ccc(C(=O)NC)nc4)[C@@H]4CC[C@@H]43)cc2[nH]c1=O [Example 10-1] |  | 
10 | 85 | 77 | 0.9 |  | CCc1cc2nnc(CN3CCN(c4ccc(C(=O)NC)nc4)C4CC[C@@H]43)cc2[nH]c1=O (some centres unmarked) [Example 10-2] |  | 5
11 | 105 | 105 | 1 |  | CCc1cc2nnc(CN3CCN(c4ccc(C(=O)NC)nc4)C4CC[C@H]43)cc2[nH]c1=O (some centres unmarked) [Example 10] | 9 | 
12 | 69 | 272 | 3.9 |  | CCc1nc2ncc(CN3CCN(c4ccc(C(=O)NC)nc4)[C@H]4CC[C@H]43)cc2[nH]c1=O [Example 11-1, 5-((1S,6R)-5-((3-ethyl-2-oxo-1,2-dihydropyrido[2,3-b]pyrazin-7-yl)methyl)-2,5-diazabicyclo[4.2.0]octan-2-yl)-N-methylpicolinamide] |  | 
13 | 135 |  | 1.5 | 202 | CCc1nc2ncc(CN3CCN(c4ccc(C(=O)NC)nc4)[C@@H]4CC[C@@H]43)cc2[nH]c1=O [Example 11-2, 5-((1R,6S)-5-((3-ethyl-2-oxo-1,2-dihydropyrido[2,3-b]pyrazin-7-yl)methyl)-2,5-diazabicyclo[4.2.0]octan-2-yl)-N-methylpicolinamide] | 9 | 
14 | 60 |  | 0.3 | 18 | CNC(=O)c1ccc(N2CCN(Cc3cnc4c5c(c(=O)[nH]c4c3)CCC5)[C@@H]3CC[C@@H]32)cn1 [Example 12-1, N-methyl-5-[(1S,6R)-5-((6-oxo-5H,7H,8H,9H-cyclopenta[c][1,5]naphthyridin-3-yl)methyl)-2,5-diazabicyclo[4.2.0]octan-2-yl]pyridine-2-carboxamide] | 15 | 
15 |  |  |  |  | CNC(=O)c1ccc(N2CCN(Cc3cnc4cc(C5CC5)c(=O)[nH]c4c3)[C@@H]3CC[C@@H]32)cn1 [Example 16-2] | 6 | 
16 | 43 | 30 | 0.7 |  | CCc1cc2ncc(CN3CCN(c4ccc(-c5nnc(C)[nH]5)nc4)[C@@H]4CC[C@@H]43)cc2[nH]c1=O [Example 29-2] |  | 13
17 |  |  |  |  | CNC(=O)c1ccc(N2CCN(Cc3cnc4cc(C(F)(F)F)c(=O)[nH]c4c3)[C@@H]3CC[C@@H]32)cn1 [Example 30-1, N-methyl-5-((1S,6R)-5-((6-oxo-7-(trifluoromethyl)-5,6-dihydro-1,5-naphthyridin-3-yl)methyl)-2,5-diazabicyclo[4.2.0]octan-2-yl)picolinamide] | 2 | 
18 | >45 |  |  |  | CNC(=O)c1ccc(N2CCN(Cc3cnc4cc(OC)c(=O)[nH]c4c3)[C@H]3CC[C@H]32)cn1 [Example 33-1] |  | 
19 | >130 | > 300 | 2.3 |  | CNC(=O)c1ccc(N2CCN(Cc3cnc4cc(OC)c(=O)[nH]c4c3)[C@@H]3CCC32)cn1 (some centres unmarked) [Example 33-2] |  | 
20 |  |  |  |  | CCc1cc2ncc(CN3CCN(c4ccc(C(=O)NC5CC5)nc4)[C@H]4CC[C@H]43)cc2[nH]c1=O [Example 46-1, N-cyclopropyl-5-((1S,6R)-5-((7-ethyl-6-oxo-5,6-dihydro-1,5-naphthyridin-3-yl)methyl)-2,5-diazabicyclo[4.2.0]octan-2-yl)picolinamide] | 8 | 
21 |  |  |  |  | CCc1cc2ncc(CN3CCN(c4ccc(C(=O)NC5CC5)nc4)[C@@H]4CC[C@@H]43)cc2[nH]c1=O [Example 46-2, N-cyclopropyl-5-((1R,6S)-5-((7-ethyl-6-oxo-5,6-dihydro-1,5-naphthyridin-3-yl)methyl)-2,5-diazabicyclo[4.2.0]octan-2-yl)picolinamide] | 2 | 
22 |  |  |  |  | CCc1cc2ncc(CN3CCN(c4ccc(C(=O)NC5CC5)nc4F)[C@H]4CC[C@H]43)cc2[nH]c1=O [Example 47-2, N-cyclopropyl-5-((1S,6R)-5-((7-ethyl-6-oxo-5,6-dihydro-1,5-naphthyridin-3-yl)methyl)-2,5-diazabicyclo[4.2.0]octan-2-yl)-6-fluoropicolinamide] | 3 | 
23 |  |  |  |  | CCc1cc2ncc(CN3CCN(c4ccc(C(=O)NC5CCC5)nc4)[C@@H]4CC[C@@H]43)cc2[nH]c1=O [Example 48-1, N-cyclobutyl-5-((1R,6S)-5-((7-ethyl-6-oxo-5,6-dihydro-1,5-naphthyridin-3-yl)methyl)-2,5-diazabicyclo[4.2.0]octan-2-yl)picolinamide] | 12 | 
24 |  |  |  |  | CCc1cc2ncc(CN3CCN(c4ccc(C(=O)NC5CCC5)nc4)[C@H]4CC[C@H]43)cc2[nH]c1=O [Example 48-2, N-cyclobutyl-5-((1S,6R)-5-((7-ethyl-6-oxo-5,6-dihydro-1,5-naphthyridin-3-yl)methyl)-2,5-diazabicyclo[4.2.0]octan-2-yl)picolinamide] | 2 | 
